Reference: ChEMBL document CHEMBL3804808, “Discovery of a Novel 2,6-Disubstituted Glucosamine Series of Potent and Selective Hexokinase 2 Inhibitors” (ACS Med Chem Lett, 2016)

Tests used:
Hexokinase-1 = target: T1, Hexokinase-1 (Homo sapiens, UniProt P19367); test: Inhibition of His-tagged human HK1 (11 to 917 residues) expressed in Escherichia coli BL21(DE3) using glucose as substrate after 45 mins by ADP-glo assay in presence of MgATP
T1 sequence (P19367 whole entry): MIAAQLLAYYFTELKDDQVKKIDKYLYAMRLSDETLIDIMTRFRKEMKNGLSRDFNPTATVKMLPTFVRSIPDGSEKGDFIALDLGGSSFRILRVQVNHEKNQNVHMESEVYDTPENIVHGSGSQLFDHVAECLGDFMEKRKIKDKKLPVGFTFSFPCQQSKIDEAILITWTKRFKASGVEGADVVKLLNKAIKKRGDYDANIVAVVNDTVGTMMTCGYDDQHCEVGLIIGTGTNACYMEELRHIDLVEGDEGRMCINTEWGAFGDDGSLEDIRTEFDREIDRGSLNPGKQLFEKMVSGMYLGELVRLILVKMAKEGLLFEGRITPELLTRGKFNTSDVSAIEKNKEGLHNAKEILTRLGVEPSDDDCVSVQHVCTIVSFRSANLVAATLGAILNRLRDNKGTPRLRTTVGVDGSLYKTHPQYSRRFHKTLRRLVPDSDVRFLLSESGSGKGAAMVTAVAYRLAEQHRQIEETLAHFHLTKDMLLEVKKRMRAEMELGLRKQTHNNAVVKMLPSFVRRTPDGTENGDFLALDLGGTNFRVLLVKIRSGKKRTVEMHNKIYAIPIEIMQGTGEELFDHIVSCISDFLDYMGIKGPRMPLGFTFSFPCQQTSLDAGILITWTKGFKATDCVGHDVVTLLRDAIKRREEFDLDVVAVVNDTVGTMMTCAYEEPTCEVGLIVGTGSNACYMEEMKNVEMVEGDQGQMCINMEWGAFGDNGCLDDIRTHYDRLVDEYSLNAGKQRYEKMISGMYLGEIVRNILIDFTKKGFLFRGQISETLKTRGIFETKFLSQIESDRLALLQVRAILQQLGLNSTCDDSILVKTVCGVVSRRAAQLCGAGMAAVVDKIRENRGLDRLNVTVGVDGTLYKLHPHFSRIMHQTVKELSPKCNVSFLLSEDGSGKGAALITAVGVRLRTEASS

Hexokinase-2 [1] = target: T2, Hexokinase-2 (Homo sapiens, UniProt P52789); test: Inhibition of His-tagged human HK2 (17 to 916 residues) expressed in Escherichia coli BL21(DE3) using glucose as substrate after 45 mins by ADP-glo assay in presence of MgATP
T2 sequence (P52789 whole entry): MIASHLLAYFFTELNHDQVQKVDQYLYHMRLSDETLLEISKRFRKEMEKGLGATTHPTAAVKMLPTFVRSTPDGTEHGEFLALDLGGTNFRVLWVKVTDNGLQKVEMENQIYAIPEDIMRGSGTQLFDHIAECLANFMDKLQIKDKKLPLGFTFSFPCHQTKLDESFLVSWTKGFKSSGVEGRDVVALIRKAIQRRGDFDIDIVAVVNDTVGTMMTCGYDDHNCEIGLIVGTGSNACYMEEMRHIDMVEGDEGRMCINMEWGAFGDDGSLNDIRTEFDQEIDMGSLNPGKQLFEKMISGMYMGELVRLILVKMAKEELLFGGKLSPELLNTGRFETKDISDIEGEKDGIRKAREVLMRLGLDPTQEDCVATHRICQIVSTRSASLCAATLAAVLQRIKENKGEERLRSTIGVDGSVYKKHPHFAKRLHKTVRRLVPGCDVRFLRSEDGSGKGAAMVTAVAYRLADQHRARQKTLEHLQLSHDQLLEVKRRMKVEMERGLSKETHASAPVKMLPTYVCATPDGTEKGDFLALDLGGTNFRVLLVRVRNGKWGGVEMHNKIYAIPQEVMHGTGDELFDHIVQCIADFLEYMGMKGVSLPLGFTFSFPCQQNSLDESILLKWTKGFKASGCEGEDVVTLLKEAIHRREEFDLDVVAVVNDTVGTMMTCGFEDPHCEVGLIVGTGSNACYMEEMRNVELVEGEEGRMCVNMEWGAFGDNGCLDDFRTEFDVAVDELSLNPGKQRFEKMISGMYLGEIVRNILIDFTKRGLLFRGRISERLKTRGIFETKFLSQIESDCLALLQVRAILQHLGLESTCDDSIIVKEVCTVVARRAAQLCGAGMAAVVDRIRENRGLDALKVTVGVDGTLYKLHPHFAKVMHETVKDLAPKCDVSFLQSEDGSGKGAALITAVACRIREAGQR

Hexokinase-2 [2] = target: T2, Hexokinase-2; test: Inhibition of HK2 in human UM-UC-3 cells using 2FDG as substrate assessed as suppression of G6P production preincubated for 30 mins followed by substrate treatment for 90 mins by resazurin assay; assay type: cell-based, UMUC3
Hexokinase-2 [3] = target: T2, Hexokinase-2; test: Competitive inhibition of His-tagged human HK2 (17 to 916 residues) expressed in Escherichia coli BL21(DE3) assessed as formation of G6P by continuous G6P dehydrogenase coupled assay in presence of glucose
Hexokinase-4 = target: T3, Hexokinase-4 (Homo sapiens, UniProt P35557); test: Inhibition of HK4 (unknown origin)
T3 sequence (P35557 whole entry): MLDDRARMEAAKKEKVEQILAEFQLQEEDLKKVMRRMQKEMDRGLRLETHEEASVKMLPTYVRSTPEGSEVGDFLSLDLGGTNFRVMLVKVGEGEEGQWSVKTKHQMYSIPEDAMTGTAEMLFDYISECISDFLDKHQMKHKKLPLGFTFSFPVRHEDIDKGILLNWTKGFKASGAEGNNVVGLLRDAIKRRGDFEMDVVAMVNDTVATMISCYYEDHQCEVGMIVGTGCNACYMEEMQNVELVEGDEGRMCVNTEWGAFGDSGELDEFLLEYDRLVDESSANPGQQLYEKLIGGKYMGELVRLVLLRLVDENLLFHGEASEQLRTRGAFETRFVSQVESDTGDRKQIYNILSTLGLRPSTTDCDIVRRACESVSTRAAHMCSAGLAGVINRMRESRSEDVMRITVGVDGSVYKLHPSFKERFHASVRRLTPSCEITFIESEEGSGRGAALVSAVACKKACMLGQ

Row | SMILES | IC50 (Hexokinase-1) | IC50 (Hexokinase-2 [1]) | IC50 (Hexokinase-2 [2]) | Ki (Hexokinase-2 [3]) | IC50 (Hexokinase-4)
1 | O=[N+]([O-])c1cccc(S(=O)(=O)N[C@H]2C(O)O[C@H](CNS(=O)(=O)c3cccc(Cl)c3Cl)[C@@H](O)[C@@H]2O)c1 (stereo not given in full) | 10 µM | 0.13 µM |  |  | 
2 | O=C(C=C1CCC(C(F)(F)F)CC1)N[C@H]1C(O)O[C@H](CO)[C@@H](O)[C@@H]1O (stereo not given in full) | 160 µM | 16 µM |  |  | 
3 | O=S(=O)(N[C@H]1C(O)O[C@H](CNS(=O)(=O)c2cccc(Cl)c2Cl)[C@@H](O)[C@@H]1O)c1ccc(Cl)s1 (stereo not given in full) | 63 µM | 0.13 µM | 0.52 µM |  | 
4 | O=S(=O)(N[C@H]1C(O)O[C@H](CNS(=O)(=O)c2cccc(Cl)c2Cl)[C@@H](O)[C@@H]1O)c1cccc(-c2ccccc2)c1 (stereo not given in full) | 5 µM | 0.025 µM | 0.47 µM |  | 
5 | O=C(/C=C/c1ccc(Cl)c(Cl)c1)N[C@H]1C(O)O[C@H](CO)[C@@H](O)[C@@H]1O (stereo not given in full) | 2 µM | 6.3 µM |  | 2.9 µM | 
6 | O=C(/C=C/c1ccc(Cl)c(Cl)c1)N[C@H]1CO[C@H](CO)[C@@H](O)[C@@H]1O | > 200 µM | > 400 µM |  |  | 
7 | O=C(N[C@H]1C(O)O[C@H](CO)[C@@H](O)[C@@H]1O)c1cc([N+](=O)[O-])cc([N+](=O)[O-])c1 (stereo not given in full) | 2 µM | 2 µM |  |  | 
8 | COC1O[C@H](CO)[C@@H](O)[C@H](O)[C@H]1NC(=O)/C=C/c1ccc(Cl)c(Cl)c1 (stereo not given in full) | > 200 µM | > 400 µM |  |  | 
9 | COC(=O)c1cc(S(=O)(=O)NC[C@H]2OC(O)[C@H](NC(=O)c3cccc(Br)c3)[C@@H](O)[C@@H]2O)oc1C (stereo not given in full) | 1.6 µM | 0.63 µM |  |  | 
10 | O=S(=O)(N[C@H]1C(O)O[C@H](CNS(=O)(=O)c2cccc(Cl)c2Cl)[C@@H](O)[C@@H]1O)c1ccc(Cl)c(Cl)c1 (stereo not given in full) | > 20 µM | 0.05 µM |  |  | 
11 | O=C(N[C@H]1C(O)O[C@H](CNS(=O)(=O)c2cccc(Cl)c2Cl)[C@@H](O)[C@@H]1O)c1ccc(Cl)s1 (stereo not given in full) | 2 µM | 0.04 µM |  |  | 
12 | O=C(N[C@H]1C(O)O[C@H](CO)[C@@H](O)[C@@H]1O)c1ccc(-c2ccccc2)cc1 (stereo not given in full) | 13 µM | 16 µM |  |  | 
13 | Cc1ccc(S(=O)(=O)NC[C@H]2OC(O)[C@H](NC(=O)/C=C/c3ccc(Cl)c(Cl)c3)[C@@H](O)[C@@H]2O)cc1 (stereo not given in full) | 2 µM | 2 µM |  |  | 

Now those with a lower IC50 (Hexokinase-1), led by results:

Row | IC50 (Hexokinase-1) | IC50 (Hexokinase-2 [1]) | IC50 (Hexokinase-2 [2]) | Ki (Hexokinase-2 [3]) | IC50 (Hexokinase-4) | SMILES
14 | 0.0079 µM | 0.025 µM |  |  |  | COc1cc(C(=O)N[C@H]2C(O)O[C@H](CNS(=O)(=O)c3cccc(Cl)c3Cl)[C@@H](O)[C@@H]2O)cc(-c2ccc(C#N)cc2)c1 (stereo not given in full)
15 | 0.04 µM | 0.79 µM |  |  |  | N#Cc1ccc(-c2cc(C(=O)N[C@H]3C(O)O[C@H](CO)[C@@H](O)[C@@H]3O)cc(C(F)(F)F)c2)cc1 (stereo not given in full)
16 | 0.016 µM | 0.1 µM |  |  |  | O=C(N[C@H]1C(O)O[C@H](CNS(=O)(=O)c2ccccc2Cl)[C@@H](O)[C@@H]1O)c1cccc(-c2ccccc2)c1 (stereo not given in full)
17 | 0.02 µM | 0.01 µM |  |  |  | Cc1oc(S(=O)(=O)NC[C@H]2OC(O)[C@H](NC(=O)c3cccc(Br)c3)[C@@H](O)[C@@H]2O)cc1C(=O)O (stereo not given in full)
18 | 0.02 µM | 0.1 µM |  |  |  | O=C(N[C@H]1C(O)O[C@H](CNS(=O)(=O)c2cnccc2Cl)[C@@H](O)[C@@H]1O)c1cccc(-c2ccccc2)c1 (stereo not given in full)
19 | 0.79 µM | 3.2 µM |  |  |  | O=C(N[C@H]1C(O)O[C@H](CO)[C@@H](O)[C@@H]1O)c1cccc(-c2ccccc2)c1 (stereo not given in full)
20 | 0.16 µM | 0.32 µM |  |  |  | O=C(N[C@H]1C(O)O[C@H](CNS(=O)(=O)c2cccc(Cl)c2)[C@@H](O)[C@@H]1O)c1cccc(-c2ccccc2)c1 (stereo not given in full)
21 | 0.025 µM | 0.05 µM |  |  |  | O=C(O)c1cccc(S(=O)(=O)NC[C@H]2OC(O)[C@H](NC(=O)c3cccc(-c4ccccc4)c3)[C@@H](O)[C@@H]2O)c1 (stereo not given in full)
22 | 0.16 µM | 0.79 µM |  |  |  | O=C(N[C@H]1C(O)O[C@H](CNS(=O)(=O)c2ccccc2)[C@@H](O)[C@@H]1O)c1cccc(-c2ccccc2)c1 (stereo not given in full)
23 | 0.032 µM | 0.025 µM | 0.2 µM |  | 3.5 µM | O=C(N[C@H]1C(O)O[C@H](CNS(=O)(=O)c2cccc(Cl)c2Cl)[C@@H](O)[C@@H]1O)c1cccc(-c2ccccc2)c1 (stereo not given in full)
24 | 0.0079 µM | 0.13 µM |  |  |  | N#Cc1ccc(S(=O)(=O)NC[C@H]2OC(O)[C@H](NC(=O)c3cccc(-c4ccccc4)c3)[C@@H](O)[C@@H]2O)cc1 (stereo not given in full)
25 | 1 µM | 0.0079 µM |  |  |  | O=S(=O)(N[C@H]1C(O)O[C@H](CNS(=O)(=O)c2cccc(Cl)c2Cl)[C@@H](O)[C@@H]1O)c1cccc(-c2ccc(Cl)cc2)c1 (stereo not given in full)
